This experiment has as its system pERK (KRas-mediated, SOS1-dependent) in MKN1 or H358 cells. The experiment in a line: cells. As to conditions: read-out: IC50 (pERK inhibition).

Description: Assay day 1, cells were dosed with the compounds of the invention with a 10 μm starting concentration and serially diluted 3× for a total of 9 concentrations. The cells were incubated for approximately 0.5-1 hour with the compounds solubilized in DMSO at 37° C. Cells were immediately fixed by adding 50 μL of 4% formaldehyde to all wells in a fume hood and the plates were incubated for 20 minutes at room temperature. The formaldehyde was discarded from the plates and 150 μL of ice-cold methanol was added to permeabilize the cells for 10 minutes at −20° C. The methanol was discarded from each of the plates and any liquid remaining in the plate by tapping the plate against paper towels. […] The plates were incubated overnight at 4° C. on a shaker.
On Assay day 2, the primary antibody solution was removed. […] The secondary antibody solution as removed and each plate was washed with PBST 3× times. Any liquid remaining was discarded and the plate was imaged using the Licor Odyssey machine according to the manufacturer's instruction, using a set focus length at 3 mm and both 800 nm and 700 nm filters. The GAPDH normalized scan values for each well were divided by the average of vehicle wells to get the % of pERK inhibition. The IC50 values were then calculated with the Graph pad Prism software.

One may read the IC50 as the midpoint of a concentration-inhibition curve. In the case of `Cc1c(C#N)cccc1[C@@H](C)Nc1nnc(C)c2cnc(N3CCOCC3)cc12` [Example 12-10, (R)-2-methyl-3-(1-((4-methyl-7-morpholinopyrido[3,4-d]pyridazin-1-yl)amino)ethyl)benzonitrile], the half-inhibitory concentration (IC50) came out at 46 nM.
